Measurements as given in patent publication US20220047566A1, “LONG ACTING IN-SITU FORMING/GELLING COMPOSITIONS” (Humanwell Pharmaceutical US, priority 2020, published 2022).
Where a name gives a salt, the structure may show the parent alone.

Tested on: skin incision
Assay: Mini-pig skin incision model, Von Frey test
Format: in vivo
Conditions: subcutaneous into both sides of incision
Experimental: Mini-pig skin incision model was used to test the anesthetic efficacy of some formulations. Mini pig was used in this model due to the similarities of their skin to humans. Mini pigs (9-12 kg) were randomly assigned for test groups. Under isoflurane anesthesia and sterile surgical conditions, a 6 cm long incision was made through skin in the rear left flank. The test drugs were administered subcutaneously into both sides of incision. The wound was then closed by continuous suture. After surgery the mini pig received antibiotic amoxicillin injection for 3 days as wound care. The efficacy of test drugs was evaluated by Von Frey test. At desired time point, an electrical automatic Von Frey was used to apply force about 0.5 cm to the incision. If operator observed the contraction of skin/muscle, or the applied force was over 100 g, the operator stopped the test and record the read of applied force. The response baseline of all mini pigs was tested and the pain threshold was set to the middle of baseline and 100 g. If the response force was higher than pain threshold value then there was anesthesia efficacy, vice versa.

## CCCCN1CCCC[C@H]1C(=O)Nc1c(C)cccc1C [levobupivacaine HCl]
  duration of anesthesia efficacy: about 4 hours
